The source of these data is ChEMBL document CHEMBL1151918 (Bioorg Med Chem, 2009).

In general, pKi refers to −log10 of the Ki, conventionally taken in molar units. A low value points to a large Ki.

pKi: −log10 of the molar value. Counter-ions that a name gives are not always drawn.

One assay has as its target Histamine H3 receptor (Homo sapiens, UniProt Q9Y5N1). The assay can be described thus: Displacement of [3H]N-alpha-methylhistamine from human histamine H3 receptor expressed in human SK-N-MC cells by liquid scintillation counting. The assay is classed as cell-based. For orientation: Displacement assays read how much labelled ligand stays bound in the presence of the test substance.

The target in assay [1] is T1, Histamine H4 receptor (Homo sapiens, UniProt Q9H3N8). The assay can be described thus: Displacement of [3H]histamine from human histamine H4 receptor expressed in human SK-N-MC cells by liquid scintillation counting. Format: cell-based.
T1 sequence (Q9H3N8 whole entry): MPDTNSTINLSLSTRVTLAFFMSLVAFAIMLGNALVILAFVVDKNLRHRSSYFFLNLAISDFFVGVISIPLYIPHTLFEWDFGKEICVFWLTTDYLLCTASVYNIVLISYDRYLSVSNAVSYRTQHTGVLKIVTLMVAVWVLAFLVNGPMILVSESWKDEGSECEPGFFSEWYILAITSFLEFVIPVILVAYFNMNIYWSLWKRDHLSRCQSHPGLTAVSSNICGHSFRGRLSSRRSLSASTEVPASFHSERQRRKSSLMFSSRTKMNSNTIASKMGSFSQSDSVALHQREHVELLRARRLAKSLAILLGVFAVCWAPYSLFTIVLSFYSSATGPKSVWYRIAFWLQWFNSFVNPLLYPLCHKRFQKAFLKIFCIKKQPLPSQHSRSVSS
In assay [2] the target is T1, Histamine H4 receptor. As to the kind of experiment: Antagonist activity at human histamine H4 receptor expressed in human SK-N-MC cells assessed as inhibition of 2-[3-(imidazol-4-yl)-propyl]-1-(4-iodo-benzyl)-isothiourea dihydrobromide-induced intrinsic activity. The assay is classed as functional, cell-based. Particulars: read-out: pA2 (converted).

Histamine H3 receptor, sequence (Q9Y5N1 whole entry): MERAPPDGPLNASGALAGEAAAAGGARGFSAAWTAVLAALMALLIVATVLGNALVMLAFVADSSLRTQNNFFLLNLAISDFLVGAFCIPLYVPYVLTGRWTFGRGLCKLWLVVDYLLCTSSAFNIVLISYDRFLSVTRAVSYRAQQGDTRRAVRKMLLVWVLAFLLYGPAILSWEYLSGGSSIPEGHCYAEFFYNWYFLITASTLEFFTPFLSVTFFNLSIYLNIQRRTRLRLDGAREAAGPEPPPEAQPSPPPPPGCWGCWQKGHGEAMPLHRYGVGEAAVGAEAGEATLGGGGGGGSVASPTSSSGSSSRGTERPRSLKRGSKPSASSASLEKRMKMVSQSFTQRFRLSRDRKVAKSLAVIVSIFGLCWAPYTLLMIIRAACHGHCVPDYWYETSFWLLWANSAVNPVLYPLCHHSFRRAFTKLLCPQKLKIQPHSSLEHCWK

Consider `N=C(N)SCCCc1c[nH]cn1`, for which the negative-log Ki (pKi) at Histamine H3 receptor is 8.60; on Histamine H4 receptor [1] it was 7.90.

For `N=C(NCCCc1ccccc1)SCCCc1c[nH]cn1`, the values for the negative logarithm of the Ki (pKi) at Histamine H3 receptor and on Histamine H4 receptor [1] were 8.00 and 7.30, respectively.

As to `N=C(N)SCCc1cnc[nH]1` [IMETIT], the negative logarithm of the Ki (pKi) on Histamine H3 receptor is 8.80; at Histamine H4 receptor [1] it was 8.20.

Turning to `NC(=NCCCc1cnc[nH]1)NCc1ccccc1`, the results for the pKi on Histamine H3 receptor and at Histamine H4 receptor [1] were 7.10 and 7.60, respectively.

As to `NC(=NCCc1ccc(Br)cc1)SCCCc1cnc[nH]1`, the figures for the negative-log Ki (pKi) on Histamine H3 receptor and on Histamine H4 receptor [1] were 8.10 and 7.40, respectively.

With `N=C(NCCc1ccccc1)SCCCc1c[nH]cn1`, the pKi is 7.70 at Histamine H3 receptor and 7.20 on Histamine H4 receptor [1].

As to `N=C(NCc1ccc(I)cc1)SCCCc1c[nH]cn1`, the pKi is 8.50 on Histamine H3 receptor and 8.00 at Histamine H4 receptor [1].

Consider `N=C(NC=C(c1ccccc1)c1ccccc1)NCCCc1c[nH]cn1`, for which the pKi at Histamine H3 receptor was 6.50; on Histamine H4 receptor [1], 6.80.

Consider `NC(=NCc1ccc(Cl)cc1)SCCCc1cnc[nH]1` [CLOBENPROPIT], for which the negative-log Ki (pKi) at Histamine H4 receptor [1] is 8.00.

For the compound `N=C(NCc1ccccc1)SCCCc1c[nH]cn1`, the negative-log Ki (pKi) at Histamine H3 receptor was 8.10; at Histamine H4 receptor [1] it was 7.60. For the same compound, the Kb on Histamine H4 receptor [2] is 20 nM.

As for `N=C(NCCC(c1ccccc1)c1ccccc1)SCCCc1c[nH]cn1`, the pKi at Histamine H3 receptor was 7.50; on Histamine H4 receptor [1], 7.60.

With `N=C(NCCc1ccc(Cl)cc1)SCCCc1c[nH]cn1`, the results for the pKi at Histamine H3 receptor and at Histamine H4 receptor [1] were 8.00 and 7.50, respectively.

Turning to `N=C(NCc1ccc(Br)cc1)SCCCc1c[nH]cn1`, the negative logarithm of the Ki (pKi) at Histamine H3 receptor was 8.60; on Histamine H4 receptor [1], 8.00.

For `NC(=NCCCCc1ccccc1)SCCCc1cnc[nH]1`, the pKi is 7.70 at Histamine H3 receptor and 7.20 at Histamine H4 receptor [1].

Regarding `N=C(NCc1ccccc1Cl)SCCCc1c[nH]cn1`, the values for the pKi on Histamine H3 receptor and at Histamine H4 receptor [1] were 8.10 and 8.00, respectively.

Take `N=C(NCc1ccc(F)cc1)SCCCc1c[nH]cn1`: the negative-log Ki (pKi) was 8.30 at Histamine H3 receptor and 7.60 at Histamine H4 receptor [1].

Take `Cc1ccc(CCNC(=N)SCCCc2c[nH]cn2)cc1`: the pKi was 7.90 on Histamine H3 receptor and 7.00 at Histamine H4 receptor [1].

For the compound `COc1ccc(CNC(=N)SCCCc2c[nH]cn2)cc1`, the results for the negative-log Ki (pKi) on Histamine H3 receptor and on Histamine H4 receptor [1] were 8.10 and 7.90, respectively.

Regarding `Cc1ccc(CNC(=N)SCCCc2c[nH]cn2)cc1`, the pKi at Histamine H3 receptor is 8.20; on Histamine H4 receptor [1], 7.60.

In the case of `N=C(NCc1ccc(Cl)c(Cl)c1)SCCCc1c[nH]cn1`, the pKi is 8.20 at Histamine H3 receptor and 8.80 on Histamine H4 receptor [1].

In the case of `COc1ccc(CCNC(=N)SCCCc2c[nH]cn2)cc1`, the results for the negative logarithm of the Ki (pKi) on Histamine H3 receptor and at Histamine H4 receptor [1] were 7.70 and 6.80, respectively.

For `N=C(NCc1cccc(Cl)c1)SCCCc1c[nH]cn1`, the values for the negative logarithm of the Ki (pKi) at Histamine H3 receptor and at Histamine H4 receptor [1] were 8.10 and 7.80, respectively.

As for `NC(=NCCc1ccc(I)cc1)SCCCc1cnc[nH]1` [IODOPHENPROPIT HYDROBROMIDE], the pKi is 8.10 on Histamine H3 receptor and 7.80 on Histamine H4 receptor [1].
